21 molecules from US8258138B2, “Potassium channel blockers” (Xention Limited, priority 2008, dated 2012) can be followed below.

In one test the target is hKv1.5 (Homo sapiens, UniProt P22460). Nature of the test: Kv1.5 Autopatch electrophysiology (whole cell patch-clamp). It counts as cell-based. As to conditions: compound at 1 μM; room temperature (22-24° C.); total charge during step to 0 mV; read-out: hKv1.5 % inh. As to the method:
Kv1.5 Autopatch Electrophysiology Method
The external bathing solution contained (in mM): 150 NaCl, 10 KCl, […], 3 MgCl2, 1 CaCl2, 10 HEPES, pH 7.4. Patch pipettes were filled with an electrode solution of composition (in mM): 160 KCl, 0.5 MgCl2, 10 HEPES, 1 EGTA, pH 7.4 with KOH.
Compounds were dissolved in DMSO (100%) and made up in the external bather at a concentration of 1 μM. All experiments were conducted at room temperature (22-24° C.).
A cell suspension (10 ml), with a density of 100,000 cells/ml, was aliquoted into a 15 ml centrifuge tube and transferred to an incubator (37° C., 5% CO2) for approximately one hour before use. Following 60 min incubation, a tube was taken and centrifuged at 1000 rpm for 4 mins at room temperature. 9.5 ml supernatant was thence discarded, leaving a cell pellet at the bottom of the tube. The pellet was then resuspended using 100 μl of cold (4° C.), filtered (0.22 μm), 0.2% BSA/bather solution (0.02 g BSA/10 ml bather). The bottom of the tube was manually agitated gently until the solution became cloudy with cells. The 100 μl cell resuspension solution was then stored on the bench at 4° C. (using a Peltier-based temperature control device) until used.
A length of capillary glass (1B150F-4, WPI) was dipped into the cell suspension solution, such that ˜3 cm column of fluid was taken up by capillary action. A Ag/AgCl wire was dropped into the non-dipped end of the capillary also. The outside of the solution-filled end of the capillary was then dried and the capillary was loaded into the AutoPatch™.
Borosilicate glass patch pipettes (from 1.5 mm OD, thin-walled filamented, GC150-TF capillary glass, Harvard) were pulled using a DMZ pipette puller (Zeitz Instruments), and were back-filled using the internal pipette solution, being careful that no bubbles remain at the tip or in the body of the pipette. Patch pipettes typically had resistances of 2.3-3.5 MΩ. Once filled, the pipette tip and a proportion of the shaft (˜15 mm) were dipped into Sigmacote (Sigma). The recording pipette was then loaded into the AutoPatch™ Automated patch-clamping was initiated by the operator, but thereafter AutoPatch.exe continued the experiment providing that pre-set conditions and criteria were satisfied.
Whole cell patch-clamp recordings were made using the AutoPatch™ rig, which incorporated an EPC9 amplifier (HEKA, Germany) under control of Pulse software (v8.54, HEKA, Germany), a motion controller with 2 translators (Newport, UK), valve controller (VF1) and a c-level suction device all at room temperature (22-24° C.). This equipment was completely under the control of AutoPatch.exe and operator intervention was only made when there was a requirement to refill the drug reservoirs or to prevent the loss of a cell due to a technical error. Cells with an Rseries greater than 18 MΩ were discounted from the experiment.
Qualification stages prior to perfusion and drug application ensured that the observed current met the criteria for the experiment. Only those cells with an IK>500 pA were used for experiments. Cells were continuously perfused with external solution at a flow rate of 1.8-2 ml/minute. […] Online analysis of the hKv1.5 current during the application of compounds was performed by the AutoPatch™ software. Voltage-step protocols and analysis of data was performed as described for conventional electrophysiology.
Electrophysiology voltage-step protocols and analysis of data was performed as follows. Data was sampled at 5 kHz, and filtered with a −3 dB bandwidth of 2.5 kHz. Cells were held at a voltage of −80 mV. Currents were evoked to a voltage step for 1000 ms in duration at 0 mV every 5 s. Currents were analysed using Pulsefit software (v8.54, HEKA, Germany), with the total charge measured during the whole of the voltage step. All other plots were produced using Igor Pro (WaveMetrics).

A further test concerns the target T1, human Kv1.3 (Homo sapiens, UniProt P22001).
T1 construct: expressed in transfected cells; host or cells: stably transfected cells grown in medium for CHO cells
Nature of the test: Kv1.3 Autopatch electrophysiology (whole cell patch-clamp, inhibition of charge movement). Type of test: cell-based. As to conditions: compound at 1 μM; cells stably transfected with human Kv1.3; room temperature; total charge during step to +30 mV relative to control; read-out: hKv1.3 % inh. An outline of the steps:
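Whole-cell AutoPatch recordings were made at room temperature from cells held at −80 mV, with 500 ms steps to +30 mV every 15 s. The bath contained 10 mM KCl, pH 7.4, and the pipette K-gluconate/EGTA, pH 7.2.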

Each structure is given as a SMILES string.

T1 sequence (P22001 whole entry): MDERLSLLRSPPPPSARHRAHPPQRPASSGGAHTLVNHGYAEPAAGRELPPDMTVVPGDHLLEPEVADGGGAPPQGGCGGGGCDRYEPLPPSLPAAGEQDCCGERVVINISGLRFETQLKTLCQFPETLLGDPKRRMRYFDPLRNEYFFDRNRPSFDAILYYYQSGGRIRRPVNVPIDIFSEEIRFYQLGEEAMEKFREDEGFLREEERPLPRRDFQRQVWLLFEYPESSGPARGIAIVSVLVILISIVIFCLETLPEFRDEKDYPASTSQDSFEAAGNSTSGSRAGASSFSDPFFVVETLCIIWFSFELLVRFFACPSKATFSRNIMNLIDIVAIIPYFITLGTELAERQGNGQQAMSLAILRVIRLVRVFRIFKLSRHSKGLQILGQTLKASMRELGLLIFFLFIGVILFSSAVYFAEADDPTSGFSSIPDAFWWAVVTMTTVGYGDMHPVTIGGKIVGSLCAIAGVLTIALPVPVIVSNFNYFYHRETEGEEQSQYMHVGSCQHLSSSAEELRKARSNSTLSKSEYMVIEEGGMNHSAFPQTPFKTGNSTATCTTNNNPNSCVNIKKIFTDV
hKv1.5, sequence (P22460 whole entry): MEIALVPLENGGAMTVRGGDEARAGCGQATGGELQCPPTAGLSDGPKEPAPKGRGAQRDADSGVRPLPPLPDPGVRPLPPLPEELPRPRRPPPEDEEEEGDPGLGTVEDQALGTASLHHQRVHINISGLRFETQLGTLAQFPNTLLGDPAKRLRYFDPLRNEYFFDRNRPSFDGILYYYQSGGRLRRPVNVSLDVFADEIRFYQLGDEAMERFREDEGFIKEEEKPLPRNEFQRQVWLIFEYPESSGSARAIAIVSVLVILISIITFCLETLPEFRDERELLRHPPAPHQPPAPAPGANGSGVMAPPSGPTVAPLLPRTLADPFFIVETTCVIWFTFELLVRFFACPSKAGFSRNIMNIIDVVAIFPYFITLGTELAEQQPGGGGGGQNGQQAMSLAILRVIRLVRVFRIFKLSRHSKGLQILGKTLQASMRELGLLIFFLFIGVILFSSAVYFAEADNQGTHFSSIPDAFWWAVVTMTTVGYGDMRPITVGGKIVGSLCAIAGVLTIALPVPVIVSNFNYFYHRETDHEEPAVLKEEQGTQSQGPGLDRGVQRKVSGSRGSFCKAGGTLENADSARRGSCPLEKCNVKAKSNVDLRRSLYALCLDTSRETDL

On to `Cn1cnc(S(=O)(=O)N(Cc2ccccc2)c2ccc(CN3CCN(c4ccccc4)CC3)cc2)c1` [Example 8, 1-Methyl-1H-imidazole-4-sulfonic acid benzyl-[4-(4-phenyl-piperazin-1-ylmethyl)-phenyl]-amide], for which the inhibition at 1 µM on hKv1.5 turned out to be 56.7%; at human Kv1.3, 90%.

For `Cc1nn(C)cc1S(=O)(=O)N(Cc1ccccc1)c1ccc(C(=O)N2CCN(c3ccccc3)CC2)cc1` [Example 46, 1,3-Dimethyl-1H-pyrazole-4-sulfonic acid benzyl-[4-(4-phenyl-piperazine-1-carbonyl)-phenyl]-amide], the inhibition at 1 µM at hKv1.5 turned out to be 62.9%; on human Kv1.3, 66%.

Take `O=C(c1ccc(N(Cc2cccc(F)c2)S(=O)(=O)c2ccccc2)cc1)N1CCN(c2ccccc2)CC1` [Example 31, N-(3-Fluoro-benzyl)-N-[4-(4-phenyl-piperazine-1-carbonyl)-phenyl]-benzenesulfonamide]: the inhibition at 1 µM on hKv1.5 stood at 61.6%; at human Kv1.3, 67%.

Regarding `O=C(c1ccc(N(Cc2ccccc2)S(=O)(=O)c2ccccc2)cc1)N1CCN(c2ccccc2)CC1` [Example 9, N-Benzyl-N-[4-(4-phenyl-piperazine-1-carbonyl)-phenyl]-benzenesulfonamide], the inhibition at 1 µM is 64.5% on hKv1.5 and 99% on human Kv1.3.

With `COc1cc(N(Cc2ccccc2)S(=O)(=O)c2ccccc2)ccc1C(=O)N1CCN(c2ccccc2)CC1` [Example 54, N-Benzyl-N-[3-methoxy-4-(4-phenyl-piperazine-1-carbonyl)-phenyl]-benzenesulfonamide], the inhibition at 1 µM came out at 89.6% on hKv1.5 and 92% on human Kv1.3.

As for `O=C(c1ccc(N(Cc2ccccc2)S(=O)(=O)c2cccs2)cc1)N1CCN(c2ccccc2)CC1` [Example 17, Thiophene-2-sulfonic acid benzyl-[4-(4-phenyl-piperazine-1-carbonyl)-phenyl]-amide], the inhibition at 1 µM on hKv1.5 was 47.3%; at human Kv1.3 it was 34%.

On to `O=C(c1ccc(N(Cc2cccc(Cl)c2)S(=O)(=O)c2ccccc2)cc1)N1CCN(c2ccccc2)CC1` [Example 11, N-(3-Chloro-benzyl)-N-[4-(4-phenyl-piperazine-1-carbonyl)-phenyl]-benzenesulfonamide], for which the figures for the inhibition at 1 µM at hKv1.5 and on human Kv1.3 were 73.6% and 92%, respectively.

Consider `CCc1ccc(S(=O)(=O)N(Cc2ccccc2)c2ccc(C(=O)N3CCN(c4ccccc4)CC3)cc2)cc1` [Example 42, N-Benzyl-4-ethyl-N-[4-(4-phenyl-piperazine-1-carbonyl)-phenyl]-benzenesulfonamide], for which the inhibition at 1 µM was determined as 66.4% on hKv1.5 and 76% on human Kv1.3.

As to `Cc1nc(C)c(S(=O)(=O)N(Cc2ccccc2)c2ccc(C(=O)N3CCN(c4ccccc4)CC3)cc2)s1` [Example 48, 2,4-Dimethyl-thiazole-5-sulfonic acid benzyl-[4-(4-phenyl-piperazine-1-carbonyl)-phenyl]-amide], the values for the inhibition at 1 µM at hKv1.5 and at human Kv1.3 were 49.3% and 79%, respectively.

Turning to `Cc1ccc(CN(c2ccc(C(=O)N3CCN(c4ccccc4)CC3)cc2)S(=O)(=O)c2cn(C)cn2)cc1` [Example 43, 1-Methyl-1H-imidazole-4-sulfonic acid (4-methyl-benzyl)-[4-(4-phenyl-piperazine-1-carbonyl)-phenyl]-amide], the values for the inhibition at 1 µM at hKv1.5 and on human Kv1.3 were 46.4% and 78%, respectively.

For `Cn1cnc(S(=O)(=O)N(Cc2cccc(Cl)c2)c2ccc(C(=O)N3CCCCC3)cc2)c1` [Example 93, 1-Methyl-1H-imidazole-4-sulfonic acid (3-chloro-benzyl)-[4-(piperidine-1-carbonyl)-phenyl]-amide], the inhibition at 1 µM is 43.4% on hKv1.5 and 67% on human Kv1.3.

For `O=C(c1ccc(N(Cc2ccccc2)S(=O)(=O)c2ccccc2)cc1)N1CCc2ccccc2C1` [Example 55, N-Benzyl-N-[4-(3,4-dihydro-1H-isoquinoline-2-carbonyl)-phenyl]-benzenesulfonamide], the inhibition at 1 µM came out at 50.1% at hKv1.5 and 81% at human Kv1.3.

On to `O=C(c1ccc(N(Cc2ccccc2)S(=O)(=O)c2ccsc2)cc1)N1CCN(c2ccccc2)CC1` [Example 18, Thiophene-3-sulfonic acid benzyl-[4-(4-phenyl-piperazine-1-carbonyl)-phenyl]-amide], for which the inhibition at 1 µM came to 82.9% at hKv1.5 and 80% on human Kv1.3.

For the molecule `COc1ccc(C2CCCN(C(=O)c3ccc(N(Cc4ccc(Cl)cc4)S(=O)(=O)c4ccccc4)cc3)C2)cc1` (stereo not drawn) [Example 57, N-(4-Chloro-benzyl)-N-{4-[3-(4-methoxy-phenyl)-piperidine-1-carbonyl]-phenyl}-benzenesulfonamide], the inhibition at 1 µM on hKv1.5 worked out at 45.2%; on human Kv1.3, 47%.

Turning to `COc1cccc(CN(c2ccc(C(=O)N3CCN(c4ccccc4)CC3)cc2)S(=O)(=O)c2ccccc2)c1` [Example 33, N-(3-Methoxy-benzyl)-N-[4-(4-phenyl-piperazine-1-carbonyl)-phenyl]-benzenesulfonamide], the inhibition at 1 µM came to 55.7% at hKv1.5 and 56% at human Kv1.3.

On to `O=C(c1ccc(N(Cc2ccc(F)cc2)S(=O)(=O)c2ccccc2)cc1)N1CCN(c2ccccc2)CC1` [Example 12, N-(4-Fluoro-benzyl)-N-[4-(4-phenyl-piperazine-1-carbonyl)-phenyl]-benzenesulfonamide], for which the values for the inhibition at 1 µM at hKv1.5 and at human Kv1.3 were 56.3% and 93%, respectively.

Turning to `O=C(c1ccc(N(Cc2ccc(Cl)cc2)S(=O)(=O)c2cccnc2)cc1)N1CCCCC1` [Example 87, Pyridine-3-sulfonic acid (4-chloro-benzyl)-[4-(piperidine-1-carbonyl)-phenyl]-amide], the values for the inhibition at 1 µM on hKv1.5 and on human Kv1.3 were 56% and 62%, respectively.

Consider `O=C(c1ccc(N(Cc2ccccc2)S(=O)(=O)c2ccccc2F)cc1)N1CCN(c2ccccc2)CC1` [Example 20, N-Benzyl-2-fluoro-N-[4-(4-phenyl-piperazine-1-carbonyl)-phenyl]-benzenesulfonamide], for which the inhibition at 1 µM stood at 88.8% on hKv1.5 and 82% on human Kv1.3.

For the molecule `Cc1ccc(CN(c2ccc(C(=O)N3CCN(c4ccccc4)CC3)cc2)S(=O)(=O)c2ccccc2)cc1` [Example 35, N-(4-Methyl-benzyl)-N-[4-(4-phenyl-piperazine-1-carbonyl)-phenyl]-benzenesulfonamide], the inhibition at 1 µM was 68.9% on hKv1.5 and 56% on human Kv1.3.

On to `O=C(c1ccc(N(Cc2ccccc2Cl)S(=O)(=O)c2ccccc2)cc1)N1CCN(c2ccccc2)CC1` [Example 10, N-(2-Chloro-benzyl)-N-[4-(4-phenyl-piperazine-1-carbonyl)-phenyl]-benzenesulfonamide], for which the inhibition at 1 µM worked out at 47.9% on hKv1.5 and 86% at human Kv1.3.

In the case of `O=C(c1ccc(N(Cc2ccccc2)S(=O)(=O)c2ccc([N+](=O)[O-])cc2)cc1)N1CCN(c2ccccc2)CC1` [Example 40, N-Benzyl-4-nitro-N-[4-(4-phenyl-piperazine-1-carbonyl)-phenyl]-benzenesulfonamide], the inhibition at 1 µM at hKv1.5 amounted to 62.4%; on human Kv1.3 it was 62%.
